Measurements: ChEMBL document CHEMBL5149970 (J Med Chem, 2021)
Activity calls are given as the source filed them. No cut-off for these calls is given here.

Experiments:
CFU-GM = test: Inhibition of colony formation in human CFU-GM cells assessed as reduction in colony number and size at 1 uM incubated for 14 days by crystal violet staining based analysis; type: toxicity, cell-based; conditions: 336 h, time 14 day
[1] = Inhibition of colony formation in human BFU-E cells assessed as reduction in colony number and size at 1 uM incubated for 14 days by crystal violet staining based analysis; type: toxicity, cell-based; conditions: 336 h, time 14 day
EU-1 [2] = test: Inhibition of MDM2/XIAP IRES mRNA interaction in human EU-1 cells assessed as increase in p53 protein expression measured after 24 hrs by western blot analysis; type: cell-based; conditions: dose 0.25-2 µM, DDE = dose-dependent effect
[3] = Antiproliferative activity against human EU-1 cells assessed as inhibition of cell growth incubated for 48 hrs by WST assay; type: functional, cell-based; conditions: EU-1, 48 h
[4] = Antiproliferative activity against human SH-EP1 cells assessed as reduction in cell survival incubated for 48 hrs by WST assay; type: functional, cell-based; conditions: SH-EP1, 48 h
[5] = Antiproliferative activity against human LA1-55n cells assessed as reduction in cell survival incubated for 48 hrs by WST assay; type: functional, cell-based
NB-1643 = test: Inhibition of colony formation in human NB-1643 cells assessed as reduction in colony number and size at 0.25 to 4 uM incubated for 2 weeks by crystal violet staining based analysis; type: functional, cell-based; conditions: dose 0.25-4 µM
SH-EP1 = test: Inhibition of colony formation in human SH-EP1 cells assessed as reduction in colony number and size at 0.25 to 4 uM incubated for 2 weeks by crystal violet staining based analysis; type: functional, cell-based; conditions: dose 0.25-4 µM
LA1-55n = test: Inhibition of colony formation in human LA1-55n cells assessed as reduction in colony number and size at 0.25 to 4 uM incubated for 2 weeks by crystal violet staining based analysis; type: functional, cell-based; conditions: dose 0.25-4 µM
EU-1 [6] = test: Inhibition of MDM2/XIAP IRES mRNA interaction in human EU-1 cells assessed as induction of MDM2 degradation by measuring downregulation of MDM2 protein expression incubated for 24 hrs by western blot analysis; type: cell-based; conditions: dose 0.25-2 µM, DDE = dose-dependent effect
EU-1 [7] = test: Inhibition of MDM2/XIAP IRES mRNA interaction in human EU-1 cells assessed as induction of MDM2 degradation by measuring downregulation of MDM2 protein expression at 1 uM measured after 2 to 24 hrs by western blot analysis; type: cell-based; conditions: time 2-24 hrs
EU-1 [8] = test: Inhibition of MDM2/XIAP IRES mRNA interaction in human EU-1 cells assessed as downregulation of XIAP protein expression incubated for 24 hrs by western blot analysis; type: cell-based; conditions: dose 0.25-2 µM, DDE = dose-dependent effect
EU-1 [9] = test: Inhibition of MDM2/XIAP IRES mRNA interaction in human EU-1 cells assessed as downregulation of XIAP protein expression at 1 uM measured after 2 to 24 hrs by western blot analysis; type: cell-based; conditions: time 2-24 hrs
EU-1 [10] = test: Inhibition of MDM2/XIAP IRES mRNA interaction in human EU-1 cells assessed as induction of MDM2 degradation by measuring fold change in MDM2 protein expression at 1 uM measured after 60 mins by CHX chase assay (reference value: 0.85); type: cell-based
EU-1 [11] = test: Inhibition of MDM2/XIAP IRES mRNA interaction in human EU-1 cells assessed as induction of MDM2 degradation by measuring fold change in MDM2 protein expression at 1 uM measured after 90 mins by CHX chase assay (reference value: 0.76); type: cell-based
EU-1 [12] = test: Inhibition of MDM2/XIAP IRES mRNA interaction in human EU-1 cells assessed as induction of MDM2 degradation by measuring fold change in MDM2 protein expression at 1 uM measured after 120 mins by CHX chase assay (reference value: 0.69); type: cell-based
EU-1 [13] = test: Inhibition of MDM2/XIAP IRES mRNA interaction in human EU-1 cells assessed as fold change in p53 protein expression at 1 uM measured after 30 mins by CHX chase assay (reference value: 0.38); type: cell-based
EU-1 [14] = test: Inhibition of MDM2/XIAP IRES mRNA interaction in human EU-1 cells assessed as fold change in p53 protein expression at 1 uM measured after 60 mins by CHX chase assay (reference value: 0.19); type: cell-based
EU-1 [15] = test: Inhibition of MDM2/XIAP IRES mRNA interaction in human EU-1 cells assessed as induction of MDM2 self-ubiquitination at 1 uM measured for 90 mins by immunoprecipitation-western blot analysis; type: cell-based
EU-1 [16] = test: Inhibition of MDM2/XIAP IRES mRNA interaction in human EU-1 cells assessed as increase in p53 protein expression at 1 uM measured after 8 hrs by western blot analysis; type: cell-based
EU-1 [17] = test: Inhibition of MDM2/XIAP IRES mRNA interaction in human EU-1 cells assessed as increase in PUMA protein expression at 1 uM measured after 8 hrs by western blot analysis; type: cell-based
EU-1 [18] = test: Inhibition of MDM2/XIAP IRES mRNA interaction in human EU-1 cells assessed as inhibition of XIAP mRNA translation by measuring reduction in state of polyribosome association of XIAP mRNA in cytoplasmic lysate at 1 uM measured after 4 hrs by linear sucrose gradient fractionation based qRT-PCR analysis; type: subcellular; conditions: Cytoplasm
EU-1 [19] = test: Inhibition of MDM2/XIAP IRES mRNA interaction in human EU-1 cells assessed as inhibition of XIAP mRNA translation by measuring increase in cytoplasmic fraction containing translation-inactive complexes, mono ribosomes at 1 uM measured after 4 hrs by linear sucrose gradient fractionation based qRT-PCR analysis; type: subcellular; conditions: Cytoplasm
EU-1 [20] = test: Inhibition of MDM2/XIAP IRES mRNA interaction in human EU-1 cells assessed as increase in caspase-3 cleavage at 1 uM measured after 8 hrs by western blot analysis; type: cell-based
EU-1 [21] = test: Inhibition of MDM2/XIAP IRES mRNA interaction in human EU-1 cells assessed as increase in PARP cleavage at 1 uM measured after 8 hrs by western blot analysis; type: cell-based
[22] = Cmax in Sprague-Dawley rat at 10 mg/kg, iv measured for 24 hrs by LC-MS/MS analysis; type: ADME, organism-based; parameters: dose 10 mg/kg, time 24 hrs, route iv; conditions: in vivo
[23] = AUC in Sprague-Dawley rat at 10 mg/kg, iv measured for 24 hrs by LC-MS/MS analysis; type: ADME, organism-based; parameters: dose 10 mg/kg, time 24 hrs, route iv; conditions: in vivo
[24] = Clearance in Sprague-Dawley rat at 10 mg/kg, iv measured for 24 hrs by LC-MS/MS analysis; type: ADME, organism-based; conditions: in vivo
[25] = Volume of distribution in Sprague-Dawley rat at 10 mg/kg, iv measured for 24 hrs by LC-MS/MS analysis; type: ADME, organism-based; conditions: in vivo
[26] = Elimination half life in Sprague-Dawley rat at 10 mg/kg, iv measured for 24 hrs by LC-MS/MS analysis; type: ADME, organism-based; conditions: in vivo
[27] = Oral bioavailability in Sprague-Dawley rat at 25 mg/kg measured for 24 hrs by LC-MS/MS analysis; type: ADME, organism-based; conditions: in vivo
EU-1 [28] = conditions: Homo sapiens, dose 1.0 µM, time 4.0 hrs
EU-1 [29] = conditions: Homo sapiens, dose 1.0 µM, time 4.0 hrs; remark: listed apart in the source

Cc1ccc(NS(=O)(=O)c2ccc3c(c2)C2OCCC2C(c2ccc(C(=O)C(C)C)cc2)N3)cc1C (stereo not drawn)
Activity (CFU-GM): Non-Toxic | Activity [1]: Non-Toxic | inhibition (EU-1 [2]): Dde | IC50 [3]: 300 nM | IC50 [4]: 500 nM | IC50 [5]: 500 nM | inhibition (NB-1643): Active | inhibition (SH-EP1): Active | inhibition (LA1-55n): Active | inhibition (EU-1 [6]): Dde | inhibition (EU-1 [7]): Active | inhibition (EU-1 [8]): Dde | inhibition (EU-1 [9]): Active | fold change (FC) (EU-1 [10]): 0.47 | fold change (FC) (EU-1 [11]): 0.25 | fold change (FC) (EU-1 [12]): 0.13 | fold change (FC) (EU-1 [13]): 1.06 | fold change (FC) (EU-1 [14]): 1.09 | inhibition (EU-1 [15]): Active | inhibition (EU-1 [16]): Active | inhibition (EU-1 [17]): Active | inhibition (EU-1 [18]): Active | inhibition (EU-1 [19]): Active | inhibition (EU-1 [20]): Active | inhibition (EU-1 [21]): Active | Cmax [22]: 8200 ng/mL | AUC [23]: 4750 ng·h/mL | CL [24]: 35.3 mL/min/kg | Vd [25]: 2.88 L/kg | beta t1/2 [26]: 0.94 h | F [27]: 5.9% | T1/2 (EU-1 [28]): < 1 h | T1/2 (EU-1 [29]): > 2 h
